From US12376614B2, “Method for producing hop processed product” (SUNTORY HOLDINGS LIMITED, priority 2016, dated 2025)

Experiments:
3T3-L1 cells = assay: Anti-adipocyte differentiation in 3T3-L1 cells (Oil Red O, WST-8 viability); type: cell-based; conditions: positive control, commercially available reagent, 50 μM
Description: [formula] formula (1) <Anti-Adipocyte Differentiation> [Reagents] • Dulbecco's modified eagle medium (DMEM): 10% FBS (fetal bovine sera) and 1% penicillin/streptomycin were added thereto. • TrypLE™ Select (1×) • IBMX: prepared to have a concentration of 0.5 mM with DMSO. • DEX: prepared to have a concentration of 1 μM with DMSO. • insulin solution human • WST-8: upon use, diluted with the DMEM medium to give a 2% WST-8. • Oil Red O: prepared to have a concentration of 5 mg/mL with isoPrOH, and upon use, diluted with pure water to give a 60% Oil Red O. [Method] • Day 1: 3T3-L1 Cells were previously cultured in a 10 cm dish to a state of 70 to 80% confluent. […] One-hundred microliters of the medium was transferred to a fresh 96-well plate, and the absorbance at 450 nm was measured with a microplate reader. Using those cells, a cell viability (%) was calculated as a relative value to the control. […] The 96-well plate was dried, 50 μL of 100% isoPrOH was added thereto, a mixture was allowed to stand at room temperature for 10 minutes, and the absorbance at 520 nm was then measured. Using those cells, an adipocyte differentiation (%) was calculated as a relative value to the control.

[1] = Antioxidant activity (DPPH radical scavenging rate); type: biochemical; conditions: positive control, commercially available reagent, 12.5 μM
Description: Each sample dissolved in DMSO was dissolved in a 50 v/v % EtOH, so as to prepare a sample solution having a concentration of 25, 50, and 100 μg/mL, and dispensed in each well of a 96-well plate in an amount of 100 μL each. Thereto was added 100 μL each of a DPPH solution dissolved in EtOH so as to have a concentration of 0.1 mM, and the mixture was stirred with vortex (final concentration: 12.5, 25, or 50 μg/mL). Next, the plate was made light-resistant with an aluminum foil, and allowed to stand at room temperature (25° C.) for 30 minutes, and the absorbance at 517 nm was then measured (n=3). Using the absorbance obtained, the DPPH radical scavenging rate (%) was calculated according to the following formula (1). Here, as for the blank, the absorbance was measured in the same manner as the sample solutions except that a 50 v/v % EtOH containing 0.2% DMSO was used.
The 3T3-L1 cells were detached with TrypLE™ Select, and diluted with a DMEM medium to a concentration of 1.0×10^5 cells/mL, 100 μL each of a cell suspension was then dispensed into a 96-well plate, and the cells were cultured at 37° C. under 5% CO2. • Day 3: Each sample was prepared using a differentiation and induction medium (0.1% IBMX, 0.01% DEX). […] One-hundred microliters of the medium was transferred to a fresh 96-well plate, and the absorbance at 450 nm was measured with a microplate reader. […]

| Structure (SMILES) | anti-adipocyte differentiation (3T3-L1 cells) [%] | antioxidant activity [1] [%] |
| --- | --- | --- |
| O=c1c(O)c(-c2ccc(O)c(O)c2)oc2cc(O)cc(O)c12 [Quercetin] | 50 |  |
| O=C1O[C@H]([C@@H](O)CO)C(O)=C1O [Vitamin C] |  | 70 |
